From patent publication US7517905B2, “Substituted azabicyclo hexane derivatives as muscarinic receptor antagonists” (Ranbaxy Laboratories Limited, priority 2003, dated 2009)

Experiments:
M2 muscarinic receptor = target: T1, M2 muscarinic receptor (Rattus norvegicus, UniProt P10980); experiment: Radioligand binding assay, [3H]-N-methyl scopolamine, rat heart membranes; conditions: [3H]NMS displacement, Ki by Cheng & Prusoff; for Ki: read-out: Receptor Binding Assay M2 pKi (converted)
T1 construct: Submandibular glands and heart were isolated and placed in ice cold homogenizing buffer; from tissue; host or cells: rat heart membrane homogenate
T1 sequence (P10980 1-466): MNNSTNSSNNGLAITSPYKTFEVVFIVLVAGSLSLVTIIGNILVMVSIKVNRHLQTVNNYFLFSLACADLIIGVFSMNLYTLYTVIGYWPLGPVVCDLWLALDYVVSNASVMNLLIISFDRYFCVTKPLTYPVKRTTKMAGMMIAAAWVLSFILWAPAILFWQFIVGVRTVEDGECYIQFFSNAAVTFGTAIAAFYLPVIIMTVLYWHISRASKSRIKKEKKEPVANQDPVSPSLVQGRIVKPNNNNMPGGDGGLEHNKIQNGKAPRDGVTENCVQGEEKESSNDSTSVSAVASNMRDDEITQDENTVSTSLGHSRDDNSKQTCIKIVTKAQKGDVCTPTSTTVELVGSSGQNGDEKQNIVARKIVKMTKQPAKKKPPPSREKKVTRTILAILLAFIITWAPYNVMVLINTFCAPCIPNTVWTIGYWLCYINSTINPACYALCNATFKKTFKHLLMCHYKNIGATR
Experimental: The affinity of test compounds for M2 and M3 muscarinic receptor subtypes was determined by [^3H]—N-methyl scopolamine binding studies using rat heart and submandibular gland, respectively as described by Moriya et al., (Life Sci, 1999, 64(25): 2351-2358).
(§1) Membrane preparation: Submandibular glands and heart were isolated and placed in ice cold homogenizing buffer (HEPES 20 mM, 10 mM EDTA, and pH 7.4) immediately after sacrifice. The tissues were homogenized in 10 volumes of homogenizing buffer and the homogenate was filtered through two layers of wet gauze and filtrate was centrifuged at 500 g for 10 min. The supernatant was subsequently centrifuged at 40.000 g for 20 min. The pallet thus obtained was resuspended in same volume of assay buffer (HEPES 20 mM, EDTA 5 mM, pH 7.4) and were stored at −70° C. until the time of assay.
Ligand binding assay: The compounds were dissolved and diluted in dimethylsulfoxide. The membrane homogenates (150-250 μg protein) were incubated in 250 ul of assay buffer HEPES 20 mM, pH 7.4) at 24-25° C. for 3 hour. Non-specific binding was determined in the presence of 1 μM atropine. The incubation was terminated by vacuum filtration over GF/B fiber filters (Wallac). The filters were then washed with ice-cold 50 mM Tris HCI buffer (pH 7.4). The filter mats were dried and bound radioactivity retained on filters was counted. The IC50 & Kd were estimated by using the non-linear curve-fitting program using G Pad Prism software. The value of inhibition constant Ki was calculated from competitive binding studies by using Cheng & Prusoff equation (Biochem Pharmacol, 1973.22: 3099-3108), Ki=IC50/(1+L/Kd), where L is the concentration of [^3H]NMS used in the particular experiment. pKi=−log Ki Functional Experiments using Isolated Rat Bladder: Methodology: […]

M3 muscarinic receptor = target: T2, M3 muscarinic receptor (Rattus norvegicus, UniProt P08483); experiment: Radioligand binding assay, [3H]-N-methyl scopolamine, rat submandibular gland membranes; conditions: [3H]NMS displacement, Ki by Cheng & Prusoff; for Ki: read-out: Receptor Binding Assay M3 pKi (converted)
T2 construct: Submandibular glands and heart were isolated and placed in ice cold homogenizing buffer; from tissue; host or cells: rat submandibular gland membrane homogenate
Experimental: as §1
Ligand binding assay: The compounds were dissolved and diluted in dimethylsulfoxide. The membrane homogenates (150-250 μg protein) were incubated in 250 ul of assay buffer HEPES 20 mM, pH 7.4) at 24-25° C. for 3 hour. Non-specific binding was determined in the presence of 1 μM atropine. The incubation was terminated by vacuum filtration over GF/B fiber filters (Wallac). The filters were then washed with ice-cold 50 mM Tris HCI buffer (pH 7.4). The filter mats were dried and bound radioactivity retained on filters was counted. The IC50 & Kd were estimated by using the non-linear curve-fitting program using G Pad Prism software.

isolated rat bladder = experiment: Functional experiments using isolated rat bladder (carbachol concentration response curve); format: cell-based; conditions: isolated rat bladder strips, carbachol-induced contraction, antagonist added 20 min before second CRC; for Kb: read-out: Functional Assay pKB (converted)
Experimental: Animals were euthanized by overdose of urethane and whole bladder was isolated and removed rapidly and placed in cold Tyrode buffer with the following composition (mMol/L) sodium chloride 137; KCl 2.7, CaCl2 1.8, MgCl2 0.1; NaHCO3 11.9, NaH2PO4 0.4; Glucose 5.55 and continuously gassed with 95% O2 and 5% CO2
The bladder was cut into longitudinal strips (3 mm wide and 5-6 mm long) and mounted in 10 ml organ baths at 30° C., with one end connected to the base of the tissue holder and the other end connected to a polygraph through a force displacement transducer. Each tissue was maintained at a constant basal tension of 2 g and allowed to equilibrate for 1 hour during which the PSS was changed every 15 min. At the end of equilibration period, the stabilization of the tissue contractile response was assessed with 1 u mol/L of carbachol consecutively for 2-3 times. Subsequently, a cumulative concentration response curve to carbachol (10^−9 mol/L to 3×10^−5 mol/L) was obtained. After several washes, once the baseline was achieved, cumulative concentration response curve was obtained in the presence of NCE (NCE added 20 min. prior to the second CRC).
The contractile results were expressed as % of control E max ED50 values were calculated by fitting a non-linear regression curve (Graph Pad Prism). PKB values were calculated by the formula pKB=−log [(molar concentration of antagonist/(dose ratio-1))] where,
dose ratio=ED50 in the presence of antagonist/ED50 in the absence of antagonist.

T2 sequence (P08483 whole entry): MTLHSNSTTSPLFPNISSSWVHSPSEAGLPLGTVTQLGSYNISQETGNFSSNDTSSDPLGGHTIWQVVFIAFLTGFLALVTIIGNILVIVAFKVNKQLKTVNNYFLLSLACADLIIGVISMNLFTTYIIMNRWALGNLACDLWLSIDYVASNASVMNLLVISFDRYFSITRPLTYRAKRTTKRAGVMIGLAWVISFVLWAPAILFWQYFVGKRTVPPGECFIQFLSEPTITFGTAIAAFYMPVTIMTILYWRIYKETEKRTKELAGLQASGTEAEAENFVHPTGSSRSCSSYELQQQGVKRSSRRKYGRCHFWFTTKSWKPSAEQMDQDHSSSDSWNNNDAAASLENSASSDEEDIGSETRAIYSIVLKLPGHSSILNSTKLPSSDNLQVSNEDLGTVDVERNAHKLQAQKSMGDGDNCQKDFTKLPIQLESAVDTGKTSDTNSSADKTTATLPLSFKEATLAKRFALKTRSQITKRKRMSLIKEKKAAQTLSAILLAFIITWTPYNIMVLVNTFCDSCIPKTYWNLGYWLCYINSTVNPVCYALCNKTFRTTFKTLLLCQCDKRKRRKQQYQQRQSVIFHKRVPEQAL

Compound | Ki (M2 muscarinic receptor) [nM] | Ki (M3 muscarinic receptor) [nM] | Receptor Binding Assay M2 pKi (M2 muscarinic receptor) | Receptor Binding Assay M3 pKi (M3 muscarinic receptor) | Kb (isolated rat bladder) [nM] | Functional Assay pKB (isolated rat bladder)
COc1ccc(C)cc1C(CC(=O)NCC(=O)N[C@H]1[C@@H]2CN(Cc3ccccc3)C[C@@H]21)c1ccccc1 (some centres unmarked) [Compound No. 10, N-[(3-benzyl-3-azabicyclo[3.1.0]hex-6-ylcarbamoyl]-methyl]-3(-2-methoxy-5-methylphenyl)-3-phenyl propionamide] | > 1000 | > 1000 |  |  | 1950 | 
Cc1ccc(O)c(C(CC(=O)N[C@H]2[C@@H]3CN(Cc4ccccc4)C[C@@H]32)c2ccccc2)c1 (some centres unmarked) [Compound No. 11, N-(3-benzyl-3-azabicyclo[3.1.0]hex-6-yl)-3-(2-hydroxy-5-methylphenyl)-3-phenyl propionamide] | > 1000 | > 1000 |  |  | 6760 | 
Cc1ccc(O)c(C(CCNC2C3CN(Cc4ccccc4)CC32)c2ccccc2)c1 (single isomer, unassigned) [Compound No. 16, (R or S)—N-(3-benzy-1-3-azabicyclo[3.1.0]hex-6-yl]-[3-(2-hydroxy-5-methylphenyl)-3-phenylpropyl]amine] |  |  |  |  |  | 7.25 ± 0.15
COc1ccc(C)cc1C(CC(=O)OCC(=O)NC1C2CNCC21)c1ccccc1 (centres unmarked) [Compound No. 7, 3-(2-methoxy-5-methylphenyl)-3-phenylpropionic acid-(3-azabicyclo[3.1.0]hex-6-ylcarbamoyl)methyl ester] | > 1000 | > 1000 |  |  | 2510 | 
COc1ccc(C)cc1C(CC(=O)OCC(=O)NC1C2CN(Cc3ccccc3)CC21)c1ccccc1 (centres unmarked) [Compound No. 1, 3-(2-Methoxy-5-methylphenyl)-3-phenyl propanoic acid-(3-benzyl-3-azabicyclo[3.1.0]hexane-6-yl-carbamoyl)methyl ester] | > 1000 | > 1000 |  |  | 9770 | 
Cc1ccc(O)c(C(CC(=O)OCC(=O)NC2C3CNCC32)c2ccccc2)c1 (centres unmarked) [Compound No. 8, 3-(2-hydroxy-5-methylphenyl)-3-phenylpropionic acid-(3-azabicyclo[3.1.0]hex-6-ylcarbamoyl)methyl ester] | > 1000 | > 1000 |  |  |  | No blockade
Cc1ccc(O)c([C@H](CCN(C(C)C)C(C)C)c2ccccc2)c1 [Tolterodine, reference compound] |  |  |  |  | 1.38 | 
Cc1ccc(OCc2ccccc2)c(C(CC(=O)OCC(=O)NC2C3CN(Cc4ccccc4)CC32)c2ccccc2)c1 (centres unmarked) [Compound No. 2, 3-(2-benzyloxy-5-methylphenyl)-3-phenyl propanoic acid-(3-benzyl-3-azabicyclo[3.1.0]-hex-6-ylcarbamoyl)-methyl ester] | > 1000 | > 1000 |  |  | 6760 | 
3-(2-methoxy-5-methylphenyl)-3-phenylpropanoic acid-4-[(3-azabicyclo[3.1.0]hex-6-yl]-ethoxy carbonylamino]butyl ester [Compound No. 5] |  |  | <6 | <6 |  | 5.15
Cc1ccc(O)c(C(CC(=O)OCCCCNOCCC2C3CNCC23)c2ccccc2)c1 (centres unmarked) [Compound No. 6, 3-(2-hydroxy-5-methylphenyl)-3-phenylpropionic acid 4-[(3-azabicyclo[3.1.0]hex-6-yl)ethoxyamino]butyl ester] |  |  | <6 | <6 |  | 5.84

Second part, led by results:

Ki (M2 muscarinic receptor) [nM] | Ki (M3 muscarinic receptor) [nM] | Receptor Binding Assay M2 pKi (M2 muscarinic receptor) | Receptor Binding Assay M3 pKi (M3 muscarinic receptor) | Compound | Kb (isolated rat bladder) [nM] | Functional Assay pKB (isolated rat bladder)
 |  | <6 | <6 | COc1ccc(C)cc1C(CC(=O)NC1C2CNCC21)c1ccccc1 (centres unmarked) [Compound No. 4, N-(3-azabicyclo[3.1.0]hex-6-yl)-3-(2-methoxy-5-methylphenyl)-3-phenyl-1-propionamide] |  | 5.64
> 1000 | > 1000 |  |  | Cc1ccc(O)c(C(CC(=O)NCC(=O)NC2C3CN(Cc4ccccc4)CC32)c2ccccc2)c1 (centres unmarked) [Compound No. 9, N-[(3-benzyl-3-azabicyclo[3.1.0]hex-6-ylcarbamoyl)-methyl]-3-(2-hydroxy-5-methylphenyl)-3-phenyl-propionamide] | 1910 | 
 |  | <6 | <6 | CCOC(=O)N(CCCCOC(=O)CC(c1ccccc1)c1cc(C)ccc1OC)C1C2CN(Cc3ccccc3)CC21 (centres unmarked) [Compound No. 12, 3-(2-methoxy-5-methylphenyl)-3-phenylpropionic acid-4-[(3-benzyl-3-azabicyclo[3.1.0]hex-6-yl)-ethoxycarbonylamino]butyl ester] |  | 6.72
 |  | <6 | <6 | Cc1ccc(O)c(C(CC(=O)NC2C3CNCC32)c2ccccc2)c1 (centres unmarked) [Compound No. 3, N-(3-azabicyclo[3.1.0]hex-6-yl)-3-(2-hydroxy-5-methylphenyl)-3-phenyl-1-propanoic acid] |  | 5.95
